Experimental data taken from PubChem BioAssay (NCI).
“And” between values parts separate entries of the source, which are not always exact repeats. Equal entries are not always repeated.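 The compound was tested at five concentrations on cells cultured in 96-well plates, with a 48-hour exposure period. GI50 is the concentration that inhibits growth by half. TGI: concentration producing complete growth inhibition.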 Where a SMILES comes first, the peptide text is derived from it. [ ]: non-standard residue; d: D form. The star is where a group is joined. Bn2Val = CC(C)[C@@H](C(=O)*)N(Cc1ccccc1)Cc1ccccc1; NH(3,4-diMeO-benzyl) = COc1ccc(CN*)cc1OC; NMeV = CN[C@H](C(=O)O)C(C)C; dNMeA = CN[C@H](C)C(=O)O

Legend:
Experiment in all cases: NCI tumour cell line growth inhibition, 48 h
MCF7 breast = tested on: MCF7 breast
NCI/ADR-RES ovarian = tested on: NCI/ADR-RES ovarian
MDA-N = tested on: MDA-N
DLD-1 colon = tested on: DLD-1 colon
DMS 114 small cell lung = tested on: DMS 114 small cell lung
KM20L2 colon = tested on: KM20L2 colon
LXFL 529 NSCLC = tested on: LXFL 529 NSCLC
RXF-631 renal = tested on: RXF-631 renal
HOP-18 NSCLC = tested on: HOP-18 NSCLC

Compound | GI50 (MCF7 breast) [µM] | TGI (MCF7 breast) [µM] | GI50 (NCI/ADR-RES ovarian) [µM] | TGI (NCI/ADR-RES ovarian) | TGI (DLD-1 colon) [µM] | TGI (KM20L2 colon) [µM] | TGI (LXFL 529 NSCLC) [µM] | also measured
COc1ccccc1NC(=O)c1ccc(/C=C/C(=O)c2nccn2C)cc1 | 0.404 | 0.977 | 0.806 | 9.77 µM | – | – | – | –
NS(=O)(=O)c1ccc(-n2nc(-c3ccc(Br)cc3)ccc2=O)cc1 | > 10 | > 10 | > 10 | > 10 µM | – | – | – | –
CC[n+]1ccc2c(c1)C(=O)c1nccc3c1c-2nc1ccccc13 | 0.587 | 4.84 | > 27.7 | > 33.3 µM | – | – | – | –
CCOC(=O)c1c(N)n(-c2ccccc2)c(=S)n(-c2ccccc2)c1=O | – | > 100 | – | – | – | – | – | TGI (MDA-N): > 100 µM
CC(=O)c1ccc(N(/C=C/C(=O)C(F)(F)F)CC(=O)c2ccc(Cl)c(Cl)c2)cc1 | 15.3 | 65.3 | 18.2 | 38.4 µM | – | – | – | –
O=C1c2ccccc2C(=O)c2c1ccc1[nH]c(CCl)nc21 | 1.75 | 4.2 | 2.76 | 10.4 µM | – | – | – | –
C[C@]12CCC(=O)C=C1CC[C@@H]1C2CC[C@]2(C)NC(=O)C(C#N)CC12 (stereo partly specified) | – | – | – | – | > 100 | > 100 | > 100 | TGI (DMS 114 small cell lung): > 100 µM
O=C1CC[C@H]2CNC(=O)C[C@H]2C1 | – | – | – | – | > 100 | – | > 100 | TGI (RXF-631 renal): > 100 µM
CC1=CCCC(OC(N)=O)C1 (stereo unspecified) | – | – | – | – | > 100 | > 100 | > 100 | TGI (HOP-18 NSCLC): > 100 µM; TGI (RXF-631 renal): > 100 µM
COc1ccc(CNC(=O)[C@@H](C)N(C)C(=O)[C@@H]2CCCN2C(=O)[C@H](C(C)C)N(C)C(=O)[C@@H](NC(=O)[C@H](C(C)C)N(Cc2ccccc2)Cc2ccccc2)C(C)C)cc1OC (Bn2Val-V[NMeV]P[dNMeA]-{NH(3,4-diMeO-benzyl)}) | – | 25.3 | 6.35 | 32.9 µM and 40.1 µM | – | – | – | GI50 (MDA-N): 11.7 µM; TGI (MDA-N): 20.2 µM and 24.9 µM
COc1ccc(N=Cc2cc(OC)c(OC)c(OC)c2)cc1 | – | – | – | – | > 100 | > 100 | > 100 | TGI (DMS 114 small cell lung): > 100 µM; TGI (HOP-18 NSCLC): > 100 µM
C1CN2N3CCCC23C1 (stereo unspecified) | – | – | – | – | > 100 | > 100 | > 100 | TGI (DMS 114 small cell lung): > 100 µM; TGI (HOP-18 NSCLC): > 100 µM
COC(=O)[C@@H](C)C[C@H](Cc1ccccc1)NC(=O)c1nc([C@@H](C[C@H](C(C)C)N(C)C(=O)[C@@H](NC(=O)[C@H]2CCCN2C)C(C)C)OC(C)=O)sc1C | < 0.0025 | > 25 | 0.235 | > 25 µM | – | – | – | –
c1ccc(-c2nnc(-c3nn(-c4ccccc4)c4nc5ccccc5nc34)o2)cc1 | – | – | – | – | > 100 | > 100 | > 100 | TGI (DMS 114 small cell lung): > 100 µM; TGI (HOP-18 NSCLC): > 100 µM
CC(=O)OCCc1cccnc1/C=N/O | – | – | – | – | > 100 | > 100 | > 100 | TGI (DMS 114 small cell lung): > 100 µM; TGI (HOP-18 NSCLC): > 100 µM
CN(C)S(=O)(=O)Nc1ccccn1 | – | > 100 | – | > 100 µM | – | – | – | TGI (MDA-N): > 100 µM
COC(=O)c1c2c(c(C)[n+]([O-])c1C)C(=O)C=CC2=O | – | – | 2.33 | 7.78 µM | – | – | – | –
O=C1CCC(NC(=O)c2ccccc2)C(=O)N1 (stereo unspecified) | – | > 100 | – | > 100 µM | – | – | – | TGI (MDA-N): > 100 µM
CNC(=O)c1cc(Oc2ccc3c(c2)sc2nc(-c4ccc(N)cc4)cn23)ccn1 | 0.128 | > 100 | 0.211 | > 100 µM | – | – | – | –

Compound | GI50 (MCF7 breast) [µM] | TGI (MCF7 breast) [µM] | GI50 (NCI/ADR-RES ovarian) [µM] | TGI (NCI/ADR-RES ovarian) | TGI (DLD-1 colon) [µM] | TGI (KM20L2 colon) [µM] | TGI (LXFL 529 NSCLC) [µM] | also measured
Fc1ccc(-c2nn(-c3ccccc3)cc2-c2nc3ccccc3o2)cc1 | 0.539 | > 100 | 3.57 | > 100 µM | – | – | – | –
CCCNC(=O)OCc1c(COC(=O)NCCC)c(-c2ccc(Cl)c(Cl)c2)n2c1CCC2 | – | 19.8 | – | 17.4 µM | – | – | – | –
NC1(CCCCCCCCCCC(=O)O)CNCCNCCNCCNC1 | – | – | – | – | > 100 | > 100 | – | TGI (DMS 114 small cell lung): > 100 µM
Clc1cccc(NC=Nc2ccc(-c3nc4ccccc4s3)cc2)c1 | 9.44 | 35.6 | 13.2 | 32 µM | – | – | – | –
COc1cc([C@@H]2c3cc4c(cc3[C@@H](NC(=O)c3cccc([N+](=O)[O-])c3)C3COC(=O)[C@@H]32)OCO4)cc(OC)c1O (stereo partly specified) | – | – | – | – | > 67.9 | > 57.7 | > 100 | TGI (RXF-631 renal): 18.8 µM
Cc1cccc2c3ccc4c(c3n(C)c12)C(=O)C=CC4=O | – | – | – | – | > 100 | – | > 100 | TGI (DMS 114 small cell lung): > 100 µM; TGI (RXF-631 renal): > 100 µM
CCCCn1/c(=N/C(=S)N(C)C)ss/c1=N\C(=S)N(C)C | – | – | – | – | > 100 | > 100 | > 100 | TGI (HOP-18 NSCLC): > 100 µM
ClCc1ccccc1CSc1ncnc2nc[nH]c12 | 53 | > 60 | > 60 | > 60 µM | – | – | – | –
COc1ccc(CN2CCCC(C(=O)c3ccc(C(F)(F)F)cc3)C2)c(O)c1 (stereo unspecified) | 18 | 54.7 | 26.7 | > 100 µM | – | – | – | –
COc1cc2c(cc1OC)C1C=NC(C(=O)O)(C2)c2ccccc21 (stereo unspecified) | – | – | – | – | > 100 | > 100 | > 100 | TGI (DMS 114 small cell lung): > 100 µM; TGI (RXF-631 renal): > 100 µM
O=C1NC(=O)C2C(=O)NC(=O)C1C2(c1ccccc1)c1ccc(Cl)cc1 (stereo unspecified) | – | – | – | – | > 100 | > 100 | > 100 | –
O=C1c2ccccc2-c2c1c1cc3c(cc1c(=O)n2CCCCl)OCO3 | 17.7 | > 100 | 24.9 | > 100 µM | – | – | – | –
O=C(O)/C=C/C(=O)Nc1ncn[nH]1 | – | > 100 | – | > 100 µM | – | – | – | TGI (MDA-N): > 100 µM
CN(C)c1ccc(/C=C2\C[N+](C)(C)C/C(=C\c3ccc(N(C)C)cc3)C2=O)cc1 | – | 30.5 | – | – | > 100 | 27.7 | 20.4 | TGI (DMS 114 small cell lung): 26.1 µM; TGI (HOP-18 NSCLC): > 100 µM
Cc1c(N2C(=O)/C(=C\c3ccccc3O)N=C2c2ccccc2)c(=O)n(-c2ccccc2)n1C | 3.83 | > 100 | 76.3 | > 100 µM | – | – | – | –
N#Cc1cnn2ccn(C3OC(COC(=O)c4ccccc4)C(OC(=O)c4ccccc4)C3OC(=O)c3ccccc3)c12 (stereo unspecified) | – | > 46.4 | – | > 21.5 µM | – | – | – | TGI (MDA-N): > 21.5 µM
O=[N+]([O-])c1ccc(NSc2ccccc2)cc1 | – | – | – | – | 64 | > 100 | 70.9 | TGI (DMS 114 small cell lung): > 100 µM; TGI (HOP-18 NSCLC): > 100 µM
OCc1c(-c2cccc3ccccc23)sc(-c2cccc3ccccc23)c1CO | – | – | – | – | – | 24.6 | 27.6 | TGI (DMS 114 small cell lung): 22.8 µM; TGI (HOP-18 NSCLC): 26.4 µM; TGI (RXF-631 renal): 37.9 µM
